Some test systems named below: 786-0 renal; A549 NSCLC; BT-549 breast; IGROV1 ovarian; KM12 colon; NCI-H226 lung; RPMI-8226 leukemia; SK-MEL-28 melanoma; SK-OV-3 ovarian; UACC-257 melanoma.
What all share (assay): inhibition of tumour cell growth, NCI panel, 48 h

The results in this text go back to PubChem BioAssay (NCI).

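Values below derive from 48-hour exposures of cells grown in 96-well plates, with endpoints linearly interpolated between the two concentrations bracketing the appropriate inhibition level. Abbreviation: GI50, concentration required for 50% inhibition of growth. TGI is the concentration that stops growth completely.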 A value given as a limit tells only on which side of the number the result lay.

In the case of `COc1cc(N2CCC(N3CCN(C)CC3)CC2)ccc1Nc1ncnc(Nc2ccccc2S(=O)(=O)C(C)C)n1`, the GI50 with 786-0 renal is 8.55 µM; in the test on A549 NSCLC it was 3.17 µM; in the test with BT-549 breast, 18.4 µM; in the test on IGROV1 ovarian it was 2.64 µM; with KM12 colon it was 6.76 µM; in the test with NCI-H226 lung it was 2.19 µM. For the same compound, the GI50 with RPMI-8226 leukemia was 10.9 µM; in the test on SK-MEL-28 melanoma it was 10.9 µM; in the test with SK-OV-3 ovarian, 5.18 µM; in the test on UACC-257 melanoma it was 8.42 µM. Moreover, the TGI in the test with 786-0 renal was determined as 22.9 µM; in the test on A549 NSCLC, 14.9 µM; in the test with BT-549 breast, 44.7 µM; in the test with IGROV1 ovarian, 7.5 µM; in the test on KM12 colon it was 27.6 µM; in the test with NCI-H226 lung it was 17.5 µM. In addition, the TGI in the test on RPMI-8226 leukemia came to 41.9 µM; with SK-MEL-28 melanoma it was 34.9 µM; with SK-OV-3 ovarian it was 30.5 µM; with UACC-257 melanoma, 27.3 µM.

Turning to `NC1CCC(Nc2nc(NCc3ccc(-c4ccccc4O)nc3)c3ncn(C4CCCC4)c3n2)CC1` (centres undefined), the GI50 in the test with 786-0 renal was 0.0293 µM; in the test on A549 NSCLC it was less than 0.01 µM; in the test on BT-549 breast it was 0.0998 µM; in the test with IGROV1 ovarian, 0.0345 µM; with KM12 colon, 0.018 µM; with NCI-H226 lung, 0.0486 µM. Besides, the GI50 is less than 0.01 µM with RPMI-8226 leukemia, 0.0211 µM in the test with SK-MEL-28 melanoma, 0.036 µM in the test on SK-OV-3 ovarian and 0.0227 µM with UACC-257 melanoma. The TGI with 786-0 renal was 1.06 µM; in the test with A549 NSCLC, 1.18 µM; in the test with BT-549 breast, 0.623 µM; in the test with IGROV1 ovarian, 2.04 µM; with KM12 colon, 0.429 µM; with NCI-H226 lung, 0.404 µM. The TGI came to 0.0479 µM with RPMI-8226 leukemia, 0.0713 µM with SK-MEL-28 melanoma, 0.431 µM in the test with SK-OV-3 ovarian and 0.0729 µM with UACC-257 melanoma.

Consider `CC(=O)N1C/C(=C/c2ccc(Cl)cc2)C(=O)/C(=C/c2ccc(Cl)cc2)C1`, for which the GI50 was 0.575 µM in the test on 786-0 renal; 0.633 µM in the test on A549 NSCLC; 0.435 µM in the test with BT-549 breast; 0.761 µM with IGROV1 ovarian; 0.255 µM in the test with KM12 colon; 1.17 µM in the test on NCI-H226 lung. For the same compound, the GI50 was 0.0889 µM in the test with RPMI-8226 leukemia, 1.54 µM in the test with SK-MEL-28 melanoma, 1.61 µM in the test on SK-OV-3 ovarian and 1.52 µM in the test with UACC-257 melanoma. Moreover, the TGI stood at 1.87 µM with 786-0 renal; 4.5 µM with A549 NSCLC; 1.32 µM in the test on BT-549 breast; 2.11 µM in the test on IGROV1 ovarian; 0.676 µM with KM12 colon; 3.49 µM in the test on NCI-H226 lung. Further, the TGI was 0.463 µM in the test on RPMI-8226 leukemia, 3.2 µM in the test with SK-MEL-28 melanoma, 3.39 µM with SK-OV-3 ovarian and 2.97 µM in the test with UACC-257 melanoma.

Regarding `C=C1C(=O)O[C@H]2[C@H]1CC/C(COC(=O)C(=O)c1cn(C)c3ccc(Cl)cc13)=C\CC[C@@]1(C)O[C@@H]21`, the GI50 in the test on 786-0 renal was 1.2 µM; with A549 NSCLC, 2.2 µM; with BT-549 breast, 0.234 µM; in the test with IGROV1 ovarian, 1.17 µM; with KM12 colon, 2.48 µM; with NCI-H226 lung, 1.46 µM. In addition, the GI50 in the test on RPMI-8226 leukemia is 0.306 µM; in the test with SK-MEL-28 melanoma, 1.49 µM; with SK-OV-3 ovarian, 3.28 µM; in the test on UACC-257 melanoma, 1.65 µM. For the same compound, the TGI in the test with 786-0 renal was 2.53 µM; in the test on A549 NSCLC it was 4.82 µM; with BT-549 breast it was 0.618 µM; in the test on IGROV1 ovarian, 2.78 µM; in the test on KM12 colon it was 7.46 µM; in the test on NCI-H226 lung, 3.08 µM. Also, the TGI was 1.19 µM with RPMI-8226 leukemia, 3.72 µM with SK-MEL-28 melanoma and 3.55 µM in the test with UACC-257 melanoma.

In the case of `O=C1O/C(=C\c2ccccc2)N(c2ccccc2)C1=O`, the TGI in the test on 786-0 renal, in the test on A549 NSCLC, with BT-549 breast, in the test on IGROV1 ovarian, in the test on KM12 colon and with NCI-H226 lung was greater than 100 µM each time. For the same compound, the TGI with RPMI-8226 leukemia, in the test on SK-MEL-28 melanoma, with SK-OV-3 ovarian and with UACC-257 melanoma was greater than 100 µM throughout.

Take `CS(=O)(=O)CCNCc1ccc(-c2ccc3ncnc(Nc4ccc(OCc5ccccc5)c(Br)c4)c3c2)o1`: the GI50 with 786-0 renal is 4.69 µM; with A549 NSCLC, 8.81 µM; in the test with BT-549 breast, 8.89 µM; with IGROV1 ovarian it was 4.94 µM; with KM12 colon, 9.06 µM; in the test on NCI-H226 lung it was 10.1 µM. Further, the GI50 is 8.67 µM in the test with RPMI-8226 leukemia, 4.5 µM in the test with SK-MEL-28 melanoma, 0.115 µM in the test on SK-OV-3 ovarian and 4.77 µM in the test with UACC-257 melanoma. Further, the TGI in the test with 786-0 renal was 10.2 µM; with A549 NSCLC, greater than 25 µM; with BT-549 breast, greater than 25 µM; with IGROV1 ovarian, greater than 25 µM; in the test on KM12 colon it was greater than 25 µM; with NCI-H226 lung, greater than 25 µM. The TGI with RPMI-8226 leukemia was greater than 24.1 µM; in the test on SK-MEL-28 melanoma it was 9.08 µM; with SK-OV-3 ovarian, greater than 25 µM; with UACC-257 melanoma, 9.3 µM.

Turning to `Cc1ccc2c(-c3ccnc(Nc4ccccc4)n3)c(-c3ccc(F)cc3)nn2n1`, the GI50 in the test with 786-0 renal was 4.84 µM; in the test with A549 NSCLC, 5.28 µM; in the test with BT-549 breast, 10.7 µM; in the test with IGROV1 ovarian it was 1.13 µM; in the test on KM12 colon it was 7.05 µM; with NCI-H226 lung it was 8.23 µM. Moreover, the GI50 in the test on RPMI-8226 leukemia was 10.5 µM; with SK-MEL-28 melanoma it was 12.2 µM; in the test with SK-OV-3 ovarian, 1.39 µM; with UACC-257 melanoma, 6.85 µM. Moreover, the TGI is 20.8 µM with 786-0 renal; greater than 25 µM in the test with A549 NSCLC; greater than 25 µM in the test on BT-549 breast; 16.5 µM in the test on IGROV1 ovarian; greater than 25 µM with KM12 colon; 24.2 µM in the test on NCI-H226 lung. Also, the TGI in the test with RPMI-8226 leukemia was greater than 25 µM; in the test on SK-MEL-28 melanoma, greater than 25 µM; in the test on SK-OV-3 ovarian, greater than 25 µM; in the test on UACC-257 melanoma, 15.1 µM.
